Measured values as given in patent US6545032B1, “Synthesis of [3,5,7]-H-imidazo[1,5-a] imidazol-2(3H)-one compounds” (Torrey Pines Institute for Molecular Studies, priority 1999, dated 2003).

What was measured:
kappa opiate receptor = target: T1, kappa opiate receptor (Cavia porcellus, UniProt P41144); experiment: Inhibition of tritiated U69,593 binding to the kappa opiate receptor in guinea pig brain homogenates; design: Mean: unit not given beside the values; details: 3 nm tritiated U69,593, guinea pig brain membranes; for % Bound: [3H]U69,593 bound; for % Inhibition: inhibition of [3H]U69,593 binding; for Mean: mean bound radioactivity of [3H]U69,593, 2.5 hours 25° C.; for Minus NSB: mean minus non-specific binding
T1 construct: guinea pig cortices and cerebella were homogenized in 40 mL of Buffer A; from tissue; host or cells: guinea pig cortices and cerebella, crude membrane suspension
T1 sequence (P41144 whole entry): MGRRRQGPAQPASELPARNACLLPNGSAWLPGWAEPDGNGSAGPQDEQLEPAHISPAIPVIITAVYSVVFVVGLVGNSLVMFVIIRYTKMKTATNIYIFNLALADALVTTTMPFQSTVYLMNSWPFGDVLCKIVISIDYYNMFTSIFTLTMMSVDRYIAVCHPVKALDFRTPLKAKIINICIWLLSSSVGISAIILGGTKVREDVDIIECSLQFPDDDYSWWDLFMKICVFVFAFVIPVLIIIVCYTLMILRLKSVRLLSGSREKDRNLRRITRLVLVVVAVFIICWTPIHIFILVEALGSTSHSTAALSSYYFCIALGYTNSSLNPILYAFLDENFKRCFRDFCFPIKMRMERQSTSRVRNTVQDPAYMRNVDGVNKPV
Protocol: The above-prepared library of individual compounds was screened for the ability to inhibit the binding of tritiated Compound U69,593 that is known to bind specifically to the kappa opiate receptor present in guinea pig brain homogenates following literature procedures. [Dooley et al., J. Biol. Chem., 273(30) 18848-18856 (1998)]
Briefly, guinea pig cortices and cerebella were homogenized in 40 mL of Buffer A [50 mM Tris-HCl, pH 7.4] at 4° C. Homogenates were centrifuged [Beckman® J2-HC, 35, 300×g] for 10 minutes. The pellets were resuspended in fresh buffer and incubated at 37° C. for 40 minutes. Following incubation, the suspensions were centrifuged as before, the resulting pellets resuspended in 100 volumes of Tris buffer, and the suspensions combined. Membrane suspensions were prepared and used on the same day. Protein content of the crude homogenates was determined by the method of Bradford, Anal. Biochem., 72:248-252 (1976).
Each assay tube contained 0.5 mL of membrane suspension, 3 nm of tritiated Compound U69,593 [(5a,7a,8b)-(−)-N-methyl-N-(7-(1-pyrrolidinyl)-1-oxaspiro(4,5)dec-8-yl)-benzeneacetamide; Lahti et al., European J. Pharmacol., 109:281-284(199-85)] in a total volume of 0.65 mL. Assay tubes were incubated for 2.5 hours a 25° C. The assay was then filtered through GF-B filters on a Tomec™ harvester (Orange, Conn.). The filters were subsequently washed with 6 mL of 50 mM Tris-HC1, pH 7.4 at 4° C. Bound radioactivity was counted on a Wallace™ Beta-plate Liquid Scintillation Counter (Piscataway, N.J.). Unlabeled U50, 488 [(trans-(dl)-3,4-dichloro-N-methyl-N-[2-(1-pyrrolidinyl)cyclohexyl]-benzeneacetamide) methane sulfonate hydrate; Lahti et al., Life Sci., 31:2257-xx(1982) and Von Voightlander et al., J. Pharmacol. Exp. Ther., 224:7 (1983)] was used as a competitive inhibitor to generate a standard curve and determine nonspecific binding. The results of these assays are shown in the table, below, wherein the “R” groups are as discussed for Example 1.

mu opiate receptor = target: T2, mu opiate receptor (Rattus norvegicus, UniProt P33535); experiment: Inhibition of [3H]DAMGO binding to the mu opiate receptor in rat brain homogenates; design: Mean: unit not given beside the values; details: 0.08 mg of compound per milliliter, 7 nM 3H-labeled DAMGO, rat brain membranes; for % Bound: [3H]DAMGO bound; for Mean: mean bound radioactivity of [3H]DAMGO; for Minus NSB*: mean minus non-specific binding; for % Inhibition: percent inhibition of DAMGO binding
T2 construct: from tissue; host or cells: rat brain membranes/homogenate
T2 sequence (P33535 whole entry): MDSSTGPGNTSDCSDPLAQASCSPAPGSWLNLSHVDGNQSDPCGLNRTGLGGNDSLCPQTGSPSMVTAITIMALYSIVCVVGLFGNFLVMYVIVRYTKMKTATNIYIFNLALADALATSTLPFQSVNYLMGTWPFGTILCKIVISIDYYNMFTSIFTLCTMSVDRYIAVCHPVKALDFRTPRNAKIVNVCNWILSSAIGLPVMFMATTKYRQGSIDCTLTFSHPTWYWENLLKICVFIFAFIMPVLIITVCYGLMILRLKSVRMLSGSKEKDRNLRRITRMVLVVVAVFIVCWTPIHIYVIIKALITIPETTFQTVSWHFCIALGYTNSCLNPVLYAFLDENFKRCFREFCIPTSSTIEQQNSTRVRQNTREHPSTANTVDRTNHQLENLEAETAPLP
Protocol: The previously prepared [3,5,7]-1H-imidazo[1,5-a]-imidazol-2(3H)-one library of individual compounds was screened for the ability to inhibit the binding of [^3H] [D-Ala^2,MePhe^4,Gly^5-ol]enkephalin (DAMGO) that is known to bind specifically to the mu opiate receptor present in rat brain homogenates following literature procedures. [Dooley et al., Science, 266:2019(1994); U.S. Pat. No. 5,763,193.]
Preparation of rat brain membranes and the receptor binding assay were carried out as described in Dooley et al., Life Sci., 52:1509(1993). Each tube in the screening assay contained 0.08 mg of compound mixture per milliliter, 0.5 mL of membrane suspension (0.1 mg of protein), 7 nM ^3H-labeled DAMGO [specific activity 36 Ci/mmol, obtained from the National Institute on Drug Abuse (NIDA) repository through Chiron Mimotopes PeptideSystems (San Diego, Calif.) and […] of peptide mixture in 50 mM Tris-HCl buffer (pH 7.4). The final volume was 0.65 mL. The results of these screenings are shown in the table, below, wherein the “R” groups are as discussed for Example 1. The results are reported as percent inhibition of DAMGO binding.

Row | SMILES | % Bound (kappa opiate receptor) [%] | % Inhibition (kappa opiate receptor) [%] | Mean (kappa opiate receptor) | Minus NSB (kappa opiate receptor) | % Bound (mu opiate receptor) [%] | Mean (mu opiate receptor) | Minus NSB* (mu opiate receptor) | % Inhibition (mu opiate receptor) [%]
1 | Cc1nc(CO)c2n1C(C(C)C)C(=O)N2 (stereo not shown) [Pool 39] | 78.827 | 21.173 | 1723.65 | 816.65 | – | – | – | –
2 | CCCCc1nc(C)n2c1NC(=O)C2C(C)C (racemic) [Pool 60] | 81.892 | 18.108 | 1755.4 | 848.40 | 62 | 902.8 | 594.80 | 38
3 | CC(C)c1nc(CCC2CCCC2)n2c1NC(=O)C2C(C)C (stereo not shown) [Pool 146] | 69.088 | 30.912 | 1622.75 | 715.75 | 67 | 945.85 | 637.85 | 33
4 | Cc1nc(C(C)C)c2n1C(C(C)C)C(=O)N2 (stereo not shown) [Pool 3] | 54.228 | 45.772 | 1468.8 | 561.80 | 70 | 974.05 | 666.05 | 30
5 | CCCCC1C(=O)Nc2c(C(C)C)nc(C)n21 (stereo not shown) [Pool 27] | 79.855 | 20.145 | 1734.3 | 827.30 | 59 | 871.25 | 563.25 | 41
6 | CC(C)c1nc(CC2CC3CCC2C3)n2c1NC(=O)C2C(C)C (stereo not shown) [Pool 155] | 69.040 | 30.960 | 1622.25 | 715.25 | 64 | 918.35 | 610.35 | 36
7 | CSCCc1nc(C)n2c1NC(=O)C2C(C)C (racemic) [Pool 59] | 78.953 | 21.047 | 1724.95 | 817.95 | 59 | 874.75 | 566.75 | 41
8 | Cc1nc(C)n2c1NC(=O)C2C(C)C (stereo not shown) [Pool 51] | 71.313 | 28.687 | 1645.8 | 738.80 | 62 | 902.75 | 594.75 | 38
9 | CCCCCCc1nc(C(C)C)c2n1C(C(C)C)C(=O)N2 (racemic) [Pool 122] | 51.805 | 48.195 | 1443.7 | 536.70 | 53 | 817.3 | 509.30 | 47
10 | CC(C)Cc1nc(C(C)C)c2n1C(C(C)C)C(=O)N2 (stereo not shown) [Pool 125] | 62.384 | 37.616 | 1553.3 | 646.30 | 48 | 763.7 | 455.70 | 52
11 | CCOc1ccc(Cc2nc(C(C)C)c3n2C(C(C)C)C(=O)N3)cc1 (racemic) [Pool 79] | 90.338 | 9.662 | 1842.9 | 935.90 | 65 | 929.1 | 621.10 | 35
12 | CC(C)c1nc(C2CCCCC2)n2c1NC(=O)C2C(C)C (stereo not shown) [Pool 137] | 129.619 | −29.619 | 2249.85 | 1342.85 | 66 | 933.35 | 625.35 | 34
13 | Cc1nc(Cc2ccccc2)c2n1C(C(C)C)C(=O)N2 (racemic) [Pool 63] | 84.913 | 15.087 | 1786.7 | 879.70 | 57 | 854.35 | 546.35 | 43
14 | Cc1nc(CCCCN)c2n1C(C(C)C)C(=O)N2 (stereo not shown) [Pool 41] | 51.853 | 48.147 | 1444.2 | 537.20 | 58 | 858.1 | 550.10 | 42
15 | CCC(C)Cc1nc(C(C)C)c2n1C(C(C)C)C(=O)N2 (stereo not shown) [Pool 126] | 73.311 | 26.689 | 1666.5 | 759.50 | 64 | 918.7 | 610.70 | 36
16 | CCC(CC)c1nc(C(C)C)c2n1C(C(C)C)C(=O)N2 (stereo not shown) [Pool 157] | 54.638 | 45.362 | 1473.05 | 566.05 | 65 | 930.35 | 622.35 | 35
17 | Cc1nc(CC(C)C)c2n1C(C(C)C)C(=O)N2 (stereo not shown) [Pool 53] | 106.356 | −6.356 | 2008.85 | 1101.85 | 71 | 988.95 | 680.95 | 29
18 | CC(C)c1nc(Cc2cc(C(F)(F)F)cc(C(F)(F)F)c2)n2c1NC(=O)C2C(C)C (racemic) [Pool 82] | 70.589 | 29.411 | 1638.3 | 731.30 | 63 | 911.65 | 603.65 | 37
19 | CC(C)c1nc(C(C2CCCCC2)C2CCCCC2)n2c1NC(=O)C2C(C)C (stereo not shown) [Pool 139] | 58.779 | 41.221 | 1515.95 | 608.95 | 65 | 928.85 | 620.85 | 35
20 | Cc1nc(C(C)C)c2n1C(C)C(=O)N2 (stereo not shown) [Pool 18] | 88.016 | 11.984 | 1818.85 | 911.85 | 71 | 989.15 | 681.15 | 29
21 | Cc1nc(C(C)C)c2n1C(CC(C)C)C(=O)N2 (stereo not shown) [Pool 4] | 95.420 | 4.580 | 1895.55 | 988.55 | 70 | 980.1 | 672.10 | 30
22 | CC1CCC(Cc2nc(C(C)C)c3n2C(C(C)C)C(=O)N3)CC1 (stereo not shown) [Pool 152] | 58.697 | 41.303 | 1515.1 | 608.10 | 48 | 770.1 | 462.10 | 52
